Measured values as given in PubChem BioAssay (NCI).
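Method: 48-hour compound exposure of cells in 96-well plates, five concentrations, linear interpolation of endpoints. GI50 marks 50% less growth. TGI denotes the concentration required for complete inhibition of growth.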

Key:
Assay in all cases: NCI tumour cell line growth inhibition, 48 h
CAKI-1 renal = system: CAKI-1 renal
HL-60(TB) leukemia = system: HL-60(TB) leukemia
HS 578T breast = system: HS 578T breast
MOLT-4 leukemia = system: MOLT-4 leukemia
NCI-H23 lung = system: NCI-H23 lung
OVCAR-3 ovarian = system: OVCAR-3 ovarian
RPMI-8226 leukemia = system: RPMI-8226 leukemia
SN12C renal = system: SN12C renal
T-47D breast = system: T-47D breast
UO-31 renal = system: UO-31 renal

Structure (SMILES)	GI50 (CAKI-1 renal)	TGI (CAKI-1 renal)	GI50 (HL-60(TB) leukemia)	TGI (HL-60(TB) leukemia)	GI50 (HS 578T breast)	TGI (HS 578T breast)	GI50 (MOLT-4 leukemia)	TGI (MOLT-4 leukemia)	GI50 (NCI-H23 lung)	TGI (NCI-H23 lung)	GI50 (OVCAR-3 ovarian)	TGI (OVCAR-3 ovarian)	GI50 (RPMI-8226 leukemia)	TGI (RPMI-8226 leukemia)	GI50 (SN12C renal)	TGI (SN12C renal)	GI50 (T-47D breast)	TGI (T-47D breast)	GI50 (UO-31 renal)	TGI (UO-31 renal)
C=C(NC(=O)C(=C)NC(=O)c1csc(C2=NC3c4csc(n4)C4NC(=O)c5csc(n5)C(C(C)(O)C(C)O)NC(=O)C5CSC(=N5)C(=CC)NC(=O)C(C(C)O)NC(=O)c5csc(n5)C3(CC2)NC(=O)C(C)NC(=O)C(=C)NC(=O)C(C)NC(=O)C(C(C)CC)NC2C=Cc3c(C(C)O)cc(nc3C2O)C(=O)OC4C)n1)C(N)=O (configuration not stated)	14.6 µM	> 100 µM	5.13 µM	31.7 µM	> 100 µM	> 100 µM	2080 nM	5.55 µM	13.7 µM	> 100 µM	6590 nM	> 100 µM	1790 nM	19.7 µM	19.6 µM	> 100 µM	4410 nM	80.7 µM	11.4 µM	> 100 µM
O=C1c2ccccc2-c2oc(=O)c3ccccc3c21	–	> 100 µM	–	> 100 µM	–	> 100 µM	–	> 100 µM	–	> 100 µM	–	> 100 µM	–	> 100 µM	–	> 100 µM	–	> 100 µM	–	> 100 µM
CNC(=O)c1ccc(N2C(=S)N(c3ccc(C#N)c(C(F)(F)F)c3)C(=O)C2(C)C)cc1F	31 µM	> 52 µM	33.7 µM	> 100 µM	> 43.1 µM	> 86.8 µM	33100 nM	> 100 µM	30.2 µM	> 89.6 µM	36500 nM	> 84.5 µM	24400 nM	> 80 µM	38.6 µM	> 100 µM	27900 nM	97 µM	8.83 µM	34.9 µM
C=C(C)[C@@H]1CC[C@]2(C(=O)O)CC[C@]3(C)[C@H](CC[C@@H]4[C@@]5(C)CCC(NC(=O)c6cccc(OC(C)=O)c6OC(C)=O)C(C)(C)[C@@H]5CC[C@]43C)[C@@H]12 (some centres not stated)	0.371 µM	2.24 µM	1.27 µM	4.52 µM	0.566 µM	4.28 µM	497 nM	2.85 µM	0.615 µM	4.62 µM	1040 nM	3.26 µM	697 nM	4.44 µM	0.94 µM	> 100 µM	628 nM	> 100 µM	0.283 µM	1.43 µM
CCN(Cc1ccccc1)c1ccc(CO)c(Cl)c1	0.845 µM	21.4 µM	11.1 µM	46.7 µM	23.2 µM	> 84.9 µM	29900 nM	> 87.2 µM	9.44 µM	> 86 µM	658 nM	3.62 µM	5530 nM	44.7 µM	19.8 µM	> 100 µM	278 nM	2.25 µM	6.5 µM	> 100 µM
CC(C)C[C@H](NC(=O)Cn1ccc(NCc2ccccc2)cc1=O)B(O)O	0.499 µM	12.8 µM	0.439 µM	10.7 µM	3.33 µM	85.3 µM	319 nM	–	5.01 µM	> 100 µM	537 nM	3.12 µM	304 nM	–	3.71 µM	54.8 µM	785 nM	12.4 µM	1.21 µM	10.6 µM
COc1cc2ncn(-c3cc(O[C@@H](C)c4ccccc4Cl)c(C(N)=O)s3)c2cc1OC	6.8 µM	> 25 µM	0.728 µM	2.86 µM	2.11 µM	13.4 µM	926 nM	> 18.4 µM	1.57 µM	> 25 µM	513 nM	> 17.4 µM	1490 nM	> 19 µM	3.05 µM	> 25 µM	1800 nM	7.09 µM	5.3 µM	> 25 µM
CC1=C(C(=O)Nc2ccc(Cl)c(Cl)c2)C(c2cccc(Cl)c2)NC(=O)N1 (configuration not stated)	9.42 µM	19.9 µM	10.6 µM	> 35.7 µM	9.68 µM	22.6 µM	4990 nM	> 23.3 µM	12.7 µM	28.5 µM	838 nM	9.13 µM	> 17000 nM	> 30.1 µM	8.53 µM	16.8 µM	19200 nM	> 50 µM	8.2 µM	15.9 µM
C/C(=N\Nc1cc(C)c2ccccc2n1)c1ccccn1	–	0.544 µM	< 0.0365 µM	0.155 µM	1.91 µM	16.2 µM	< 38.1 nM	0.489 µM	0.172 µM	8.49 µM	< 19.4 nM	3.51 µM	112 nM	2.01 µM	0.0762 µM	7.57 µM	< 20.8 nM	2.78 µM	< 0.0377 µM	0.903 µM
N#Cc1ccc2c(c1)C(=O)c1c-2n(CCCCl)c(=O)c2cc([N+](=O)[O-])ccc12	18 µM	> 100 µM	11.4 µM	29.9 µM	41 µM	> 100 µM	1340 nM	5.26 µM	4.81 µM	17.6 µM	8770 nM	> 100 µM	3440 nM	20.6 µM	5.93 µM	> 100 µM	2650 nM	> 100 µM	2.61 µM	> 100 µM
O=c1ccs[nH]1	–	22.2 µM	–	25 µM	–	49.7 µM	–	25 µM	–	43.7 µM	–	21.7 µM	–	21.8 µM	–	28.3 µM	–	55.5 µM	–	23 µM
Cc1ccc2c(-c3ccnc(Nc4ccccc4)n3)c(-c3ccc(F)cc3)nn2n1	1.41 µM	> 25 µM	9.56 µM	> 25 µM	8.51 µM	> 25 µM	13400 nM	> 25 µM	8.25 µM	> 25 µM	4980 nM	> 22.8 µM	10500 nM	> 25 µM	4.85 µM	> 25 µM	7450 nM	> 25 µM	1.01 µM	> 24.1 µM
NC[C@H]1Nc2ccccc2[C@@H](O)C1O (some centres not stated)	–	> 100 µM	–	> 100 µM	–	> 100 µM	–	> 100 µM	–	> 100 µM	–	> 100 µM	–	> 100 µM	–	> 100 µM	–	> 100 µM	–	> 100 µM
